# Measurements as given in PubChem BioAssay AID977621 (Broad Institute, 2014).
# Inconclusive results are not listed. Activity calls are given as the source filed them.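 The calls were made as follows: active = Wild-type ribosome reporter drop at least double the humanized mutant ribosome reporter drop, growth loss under a set limit; inconclusive = no clear call, values can overlap the other calls; inactive = the rest.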
# Tested on: E. coli wild-type GFP strain growth, fluorescence, 24 h
# Experiment: wild-type E. coli growth inhibition versus H69 humanized strain – H69 mutant RFP, wild-type GFP, cherry-pick, dose response (AID 977621);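 also: wild-type GFP and H69 mutant RFP strains grown together 50/50 in each well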
# [1] = E. coli mixed culture, 24 h, measured here: total growth OD600, test 2
Structure (SMILES),AC50 [1],AC50
CSc1nc2ccc(NS(=O)(=O)c3ccc([N+](=O)[O-])cc3)cc2s1,< 0.6 µM,–
CC(C)=C(c1ccc(Cl)cc1)c1c(N)ncnc1N,–,> 100 µM (inactive)
Nc1nn(-c2ccccc2)c2ccc([N+](=O)[O-])cc12,–,> 100 µM (inactive)
COc1ccc(NC(=O)Nc2cccc3c2O[C@H](CN(C)S(=O)(=O)c2ccc(Cl)cc2)[C@H](C)CN([C@@H](C)CO)C3=O)cc1,6.44 µM,> 100 µM (inactive)
CC(=O)c1ccc(OCC(=O)Nc2ccc3c(c2)CCC3)cc1,> 100 µM,–
COc1ccccc1CCNC(=O)c1cccc(NC(=O)CC2SC(N3CCCCC3)=NC2=O)c1 (configuration not stated),–,> 100 µM (inactive)
COC(=O)COc1ccc(Cl)cc1C1Nc2ccccc2C(=O)N1c1ccc(OC)cc1 (configuration not stated),> 100 µM,> 100 µM (inactive)
Cc1cc(C(=O)COC(=O)c2ccc(O)cc2)c(C)n1CC(F)(F)F,> 100 µM,–
CCOc1ccc(NC(=O)CN2C(=O)COc3ccc(S(=O)(=O)N4CCCC4)cc32)cc1,–,> 100 µM (inactive)
CCc1nnc(NS(=O)(=O)c2ccc(NC(=O)c3cc(Cl)ccc3[N+](=O)[O-])cc2)s1,51.9 µM,–
CCOC(=O)C(CC)Sc1cc(C)nc2ccc(OC)cc12 (configuration not stated),> 100 µM,–
CCN(CC)S(=O)(=O)c1ccc(O)c(C(=O)OCC(=O)NC23CC4CC(CC(C4)C2)C3)c1,> 100 µM,> 100 µM (inactive)
COc1ccc(OC)c(C(=O)COC(=O)c2ccc([N+](=O)[O-])o2)c1,> 100 µM,> 100 µM (inactive)
CCN(CC)CCN(C(=O)C1CCCCC1)c1nc2cc3c(cc2s1)OCO3,–,> 100 µM (inactive)
O=C(c1ccco1)N(CCCN1CCOCC1)c1nc(-c2ccc(F)cc2)cs1,–,> 100 µM (inactive)
O=[N+]([O-])c1ccc2nc(-c3ccccc3[N+](=O)[O-])[nH]c2c1,> 100 µM,> 100 µM (inactive)
COC(=O)CNC(=O)COC(=O)c1ccc(Cl)nc1,> 100 µM,–
CCOC(=O)c1cnc2c(c(C)nn2C)c1Oc1ccc(OC)cc1,> 100 µM,–
Cc1ccccc1OCc1nc2ccccc2n1C,–,> 100 µM (inactive)
S=c1[nH]c2cc(Cl)ccc2s1,–,> 100 µM (inactive)
Cc1nc2ccc(Br)cc2c(=O)n1Cc1cccs1,50.2 µM,> 100 µM (inactive)
CCC(=O)c1ccc(OCC(=O)Nc2nc(C)cs2)cc1,> 100 µM,> 100 µM (inactive)
COc1ccc(CCCc2nc3ccccc3[nH]2)cc1,> 100 µM,–
Cc1cc2nc(-c3ccc4c(c3)CCC4)ccn2n1,> 100 µM,> 100 µM (inactive)

Structure (SMILES),AC50 [1],AC50
CCOC(=O)C1CCCN(C(=O)c2csc(-c3ccc4c(c3)CCO4)n2)C1 (configuration not stated),–,> 100 µM (inactive)
C[C@H](CO)N1C[C@H](C)[C@H](CN(C)C(=O)Nc2ccc3c(c2)OCO3)Oc2c(NC(=O)Nc3ccccc3)cccc2C1=O,48.4 µM,–
CCN(CC(=O)Nc1cccc(S(=O)(=O)N2CCCC2)c1)CC(=O)Nc1ccccc1OC,> 100 µM,–
CCN(c1ccccc1)S(=O)(=O)c1ccc(OC)c(OC)c1,> 100 µM,> 100 µM (inactive)
O=C(Nc1ccc(Cl)cn1)c1ccc([N+](=O)[O-])o1,> 100 µM,–
Cc1ccc(NC(=O)c2ccc(CSc3ccccn3)cc2)c(O)c1,20.9 µM,> 100 µM (inactive)
O=C1CCCN1CCCNc1ncnc2c1[nH]c1ccc(Cl)cc12,40.5 µM,–
CCN(CC)C(=O)c1ccc(COc2ccccc2Cl)o1,> 100 µM,–
COc1ccc(NC(=O)Nc2cccc3c2O[C@@H](CN(C)S(=O)(=O)c2ccc(Cl)cc2)[C@H](C)CN([C@H](C)CO)C3=O)cc1,–,> 100 µM (inactive)
CCOc1ccccc1N(CC(=O)Nc1ccccc1F)S(=O)(=O)c1ccccc1,15.6 µM,> 100 µM (inactive)
CN(CCOc1ccccc1)S(=O)(=O)c1ccccc1C#N,> 100 µM,–
CC(=O)c1c(C)[nH]c(C(=O)Nc2nc(C)cs2)c1C,> 100 µM,–
Cc1ccc(OCCn2c(=S)[nH]c3c(N)ncnc32)cc1,31.8 µM,> 100 µM (inactive)
CO[C@@H]1CN(C)C(=O)c2ccc(NC(=O)c3nc4ccccc4s3)cc2OC[C@@H](C)N(Cc2ccncc2)C[C@@H]1C,–,52 µM (inactive)
NS(=O)(=O)c1cccc(NC(=O)CSc2nc3ccccc3n2-c2ccccc2)c1,40.3 µM,> 100 µM (inactive)
Cc1ccc(S(=O)(=O)NCc2c(-c3ccccc3)noc2C)cc1,> 100 µM,–
O=C(CCNC(=O)c1ccco1)Nc1cccc(Br)c1,> 100 µM,–
COc1cc(NC(=O)CSCc2ccc(Cl)cc2Cl)c(C(=O)O)cc1OC,> 100 µM,> 100 µM (inactive)
S=C1SCN(Cc2cccnc2)CN1Cc1cccnc1,> 100 µM,–
Cc1cc(C)c(NC(=O)C(C)c2cccc(C(=O)c3ccccc3)c2)c(C)c1 (configuration not stated),47.2 µM,–
CCCCc1cc2c(cc1NC(=O)CN1CCCCC1)OCCO2,> 100 µM,> 100 µM (inactive)
Cc1noc(C)c1NC(=O)Nc1ccc2c(c1)C(=O)N([C@H](C)CO)C[C@H](C)[C@H](CN(C)C(=O)Nc1ccc3c(c1)OCO3)OCCCC[C@@H](C)O2,> 100 µM,–
O=C(Nc1ccc2c(c1)OCO2)c1cc(-c2ccncc2)nc2ccccc12,–,> 100 µM (inactive)
CC(C)CN(C(=O)c1cc([N+](=O)[O-])cc([N+](=O)[O-])c1)C1CCS(=O)(=O)C1 (configuration not stated),> 100 µM,–

Structure (SMILES),AC50 [1],AC50
COc1ccccc1C1CCN(Cc2cccc([N+](=O)[O-])c2)CC1,> 100 µM,> 100 µM (inactive)
Nc1ccc2nc(-c3ccc(Cl)cc3)[nH]c2c1,–,> 100 µM (inactive)
COC(=O)C(Cc1csc2ccc(Cl)cc12)NC(=O)c1ccc(Cl)cc1 (configuration not stated),18.4 µM,> 100 µM (inactive)
COc1ccccc1C1CCN(C(=O)c2cccs2)CC1,> 100 µM,–
CC(=O)Nc1cccc(Nc2nc(-c3ccccc3)nc3ccccc23)c1,5.27 µM,> 100 µM (inactive)
O=C(Nc1ccc2nc3n(c(=O)c2c1)CCCCC3)c1c(F)ccc([N+](=O)[O-])c1F,–,> 100 µM (inactive)
CC1CCCC(NC(=O)COC(=O)Cc2c[nH]c3ccccc23)C1C (configuration not stated),> 100 µM,–
COc1cc2nc(Nc3ccc(F)cc3)nc(N)c2cc1OC,–,> 100 µM (inactive)
O=C(CCc1ccccc1)Nc1sc2c(c1C(=O)O)CCCC2,–,> 100 µM (inactive)
O=C(CN1CCN(c2ccc(O)cc2)CC1)Nc1cc(S(=O)(=O)N2CCCC2)ccc1Cl,–,> 100 µM (inactive)
COc1ccc(CN(C)C[C@H]2Oc3ccc(NS(=O)(=O)c4ccc(Cl)cc4)cc3CC(=O)N([C@@H](C)CO)C[C@H]2C)cc1,> 100 µM,–
Cc1ccc(NS(=O)(=O)c2cc(C(=O)N3CCc4ccccc4C3)ccc2Cl)cc1,33.3 µM,–
O=C(CSc1ccncc1)Nc1ccc2ccccc2c1,30 µM,> 100 µM (inactive)
O=S(=O)(Nc1cccc(-c2ccc(N3CCCCCC3)nn2)c1)c1ccc(F)cc1,–,> 100 µM (inactive)
COc1ccc(N2C(=O)C3C(C2=O)C3(c2ccccc2)c2ccccc2)cc1 (configuration not stated),–,> 100 µM (inactive)
COc1ccccc1N(C1=NCCCS1)S(=O)(=O)c1ccc(C(C)(C)C)cc1,–,> 100 µM (inactive)
Cc1ccc(-c2c[n+](CC(=O)Nc3ccccc3)c3n2CCC3)cc1,> 100 µM,–
O=C(Nc1cc(S(=O)(=O)N2CCCCC2)ccc1N1CCCCC1)C1CC1,> 100 µM,–
COc1cc(C(=O)NCCc2c[nH]c3ccccc23)ccc1OCc1c(C)noc1C,> 100 µM,–
O=C(Nc1cccc(Cl)c1)N1C[C@H]2[C@@H](c3ccccc31)[C@H](CO)N2CC1CCCCC1,–,> 100 µM (inactive)
OC(COc1ccc(Cl)cc1)CN1CCN(c2ccccn2)CC1 (configuration not stated),–,> 100 µM (inactive)
COc1ccc(Cc2nnc(Nc3ccc(C)cc3)o2)cc1OC,–,> 100 µM (inactive)
O=C(CN1CCCC1)Nc1ccccc1Sc1ccc(Cl)cc1,29.9 µM,> 100 µM (inactive)
NC(=O)c1cc(NC(=O)c2cc(Br)c(Br)s2)cc(C(N)=O)c1,–,> 100 µM (inactive)

Structure (SMILES),AC50 [1],AC50
CCCCNC(=O)c1cc2c(C)cc(C)cc2[nH]1,–,> 100 µM (inactive)
CCCNC(=O)c1cc(C2CCCN(S(=O)(=O)c3cccc4cccnc34)C2)on1 (configuration not stated),–,> 100 µM (inactive)
CSCCC(=O)Nc1nc(-c2ccccn2)cs1,–,> 100 µM (inactive)
c1ccc(CNc2ncnc3sccc23)cc1,–,> 100 µM (inactive)
CCOC(=O)c1cc(-c2ccc(OC)cc2)n[nH]1,> 100 µM,–
Cc1nc(C)c(-c2ccn(S(=O)(=O)c3ccc(Cl)cc3)n2)o1,–,> 100 µM (inactive)
CCOC(=O)c1nc(C)sc1-c1ccnn1S(=O)(=O)c1cccc(Cl)c1,45.7 µM,> 100 µM (inactive)
COc1ccc(C(=O)C2CCCN(C(=O)c3noc4c3CCCC4)C2)cc1F (configuration not stated),–,> 100 µM (inactive)
Clc1ccc(-c2nc(NCCCN3CCOCC3)c3ccccc3n2)cc1,–,> 100 µM (inactive)
CCCCSc1nc(N)c(C#N)c(-c2cccs2)c1C#N,–,> 100 µM (inactive)
Cc1noc(C)c1S(=O)(=O)N(Cc1ccccc1)C(C)C,> 100 µM,–
C[C@@H]1CN([C@@H](C)CO)C(=O)CCCn2nncc2CO[C@H]1CN(C)C(=O)Nc1cccc(C(F)(F)F)c1,–,> 100 µM (inactive)
CCOc1ccc(CCNC(=O)CCn2ccc3cc(S(=O)(=O)N4CCCC4)ccc32)cc1,41.4 µM,> 100 µM (inactive)
O=C(O)c1cc(-c2ccc(Cl)s2)nc2ccccc12,> 100 µM,–
CC(C)Sc1sc(C(=O)O)c(-c2ccc(Cl)cc2)c1C#N,32.7 µM,–
COc1ccc(C2CC(=O)Oc3cc(C)cc(C)c32)cc1 (configuration not stated),> 100 µM,–
Cc1cc(NCc2ccccn2)n2nc(C)c(-c3ccccc3)c2n1,49.3 µM,–
Cc1nc2ncnn2c(N2CCC(C(=O)NC3CCCC3)CC2)c1Cc1ccccc1,> 100 µM,–
Cc1ccc(Oc2ccc(S(=O)(=O)N3CCOCC3)cc2C(N)=O)cc1C,–,> 100 µM (inactive)
C[n+]1ccccc1/C=C/c1cc(Br)ccc1O,–,> 100 µM (inactive)
O=C(CC(c1ccccc1)c1cc(Br)ccc1O)N1CCCC1 (configuration not stated),36.4 µM,> 100 µM (inactive)
Cc1ccc2c(c1C)OC(=O)CC2c1ccccc1 (configuration not stated),–,> 100 µM (inactive)
